IC50 data for 47 compounds are collected here from patent US11014941B2, “Pyrrolopyrimidine derivatives useful as inhibitors of influenza virus replication” (priority 2017, dated 2021).

The assay concerns the target Influenza PB2 (Influenza A virus, UniProt P03428). Kind of assay: biochemical. As to conditions: read-out: Influenza PB2 affinity, IC50. It is filed as binding.

Molecules are shown by their SMILES.

Chain of Influenza PB2 (P03428 whole entry, looked up): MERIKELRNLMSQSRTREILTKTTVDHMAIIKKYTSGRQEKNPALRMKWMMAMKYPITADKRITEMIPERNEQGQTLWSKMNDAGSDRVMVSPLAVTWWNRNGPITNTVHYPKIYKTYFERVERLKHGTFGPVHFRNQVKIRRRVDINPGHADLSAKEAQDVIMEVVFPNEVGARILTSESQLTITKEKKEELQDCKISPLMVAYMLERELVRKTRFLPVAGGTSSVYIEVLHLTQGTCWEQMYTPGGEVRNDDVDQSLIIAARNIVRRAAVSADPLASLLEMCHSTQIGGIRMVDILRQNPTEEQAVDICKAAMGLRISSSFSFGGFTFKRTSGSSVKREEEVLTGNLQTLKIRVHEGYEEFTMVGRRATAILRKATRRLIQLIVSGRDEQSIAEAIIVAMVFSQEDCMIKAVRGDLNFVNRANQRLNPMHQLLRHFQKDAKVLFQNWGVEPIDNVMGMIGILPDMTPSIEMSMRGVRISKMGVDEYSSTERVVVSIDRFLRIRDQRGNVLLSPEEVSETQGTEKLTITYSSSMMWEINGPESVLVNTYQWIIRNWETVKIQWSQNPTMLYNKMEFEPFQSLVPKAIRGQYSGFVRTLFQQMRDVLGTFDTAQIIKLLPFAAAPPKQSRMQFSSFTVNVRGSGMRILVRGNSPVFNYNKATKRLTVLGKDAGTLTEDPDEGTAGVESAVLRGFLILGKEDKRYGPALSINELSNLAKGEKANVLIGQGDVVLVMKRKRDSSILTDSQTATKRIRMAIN

The term IC50 denotes the concentration that gives 50% inhibition. Take `CCOC(=O)[C@@H]1C2CCC(CC2)[C@H]1n1ccc2ccc(-c3c[nH]c4ncc(F)cc34)nc21` [Compound B199]: the IC50 was 10 to 100 µM. With `O=C(O)[C@@H]1C2CCC(CC2)[C@H]1n1cc(-c2ccncc2F)c2cnc(-c3c[nH]c4ncc(Cl)cc34)nc21` (relative stereo) [Compound B211], the IC50 lay within 1 to 10 µM. The result for `COC(=O)[C@H](CO)NC(=O)CCn1ccc2c(-c3c[nH]c4ncc(F)cc34)ncnc21` [Compound A19] reads 10 to 100 µM; that for `CNC(=O)[C@@H]1C2CCC(CC2)C1n1cc(F)c2cnc(-c3c[nH]c4ncc(Cl)cc34)nc21` (single isomer, unassigned) [Compound B195], 10 to 100 µM.

With `O=C(O)[C@H]1C2CCC(CC2)[C@@H]1n1cc(Cl)c2cnc(-c3c[nH]c4ncc(F)cc34)nc21` [Compound B127], the IC50 was below 1 µM.

Take `CCOCCOCCOCC(=O)N[C@@H]1CCC[C@H](n2ccc3cnc(-c4c[nH]c5ncc(F)cc45)nc32)C1` [Compound B28]: the IC50 was in the range of 10 to 100 µM. For `CC(CC(=O)O)n1cc(-c2c[nH]c3ncc(F)cc23)c2cncnc21` (centres unmarked) [Compound C8] the value was 10 to 100 µM; for `CNC(=O)N[C@H]1CC[C@@H](n2ccc3cnc(-c4c[nH]c5ncc(F)cc45)nc32)CC1` [Compound B68], 1 to 10 µM. Take `CCOC(=O)[C@@H]1C2CCC(CC2)[C@H]1n1cc(CCCCC#N)c2cnc(-c3c[nH]c4ncc(F)cc34)nc21` [Compound B202]: the half-maximal inhibitory concentration (IC50) is above 100 µM. For `Fc1cnc2[nH]cc(-c3ncc4c(F)cn(CC5CCNCC5)c4n3)c2c1` [Compound B55] the value was above 100 µM; for `COC(=O)[C@@]1(C)CCCC[C@H]1n1cc(Cl)c2cnc(-c3c[nH]c4ncc(F)cc34)nc21` [Compound B81], above 100 µM; for `CCOC(=O)[C@H]1C2CCC(CC2)[C@@H]1n1cc(Cl)c2cnc(-c3c[nH]c4ncc(F)cc34)nc21` [Compound B126], above 100 µM. For the compound `O=C(O)[C@@H]1CCCC[C@H]1n1ccc2cnc(-c3c[nH]c4ncc(F)cc34)nc21` (single isomer, unassigned) [Compound B17], the IC50 was below 1 µM. For `CN(C)C(=O)CCN1CCc2cnc(-c3c[nH]c4ncc(F)cc34)nc21` [Compound B12] the value was 10 to 100 µM. The result for `Fc1cnc2[nH]cc(-c3ncc4c(F)cn(CC5CCCCN5)c4n3)c2c1` (centres unmarked) [Compound B76] reads 10 to 100 µM. The result for `Cc1cn([C@@H]2C3CCC(CC3)[C@H]2C(=O)O)c2nc(-c3c[nH]c4ncc(F)cc34)ncc12` [Compound B163] reads below 1 µM; that for `O=C(O)CN1CCc2cnc(-c3c[nH]c4ncc(F)cc34)nc21` [Compound B9], above 100 µM. As for `CCOC(=O)[C@H]1C2CCC(CC2)[C@@H]1n1ccc2cnc(-c3c[nH]c4ncc(F)cc34)nc21` [Compound B121], the IC50 lay in the range of 10 to 100 µM. For `O=C(O)[C@@H]1C2CCC(CC2)[C@H]1n1cc(-c2cccc(O)c2)c2cnc(-c3c[nH]c4ncc(F)cc34)nc21` [Compound B145] the value was below 1 µM. The result for `C[C@@]1(C(=O)O)CCCC[C@H]1n1cc(C(F)(F)F)c2cnc(-c3c[nH]c4ncc(F)cc34)nc21` [Compound B74] reads below 1 µM; that for `O=C(O)[C@@H]1C2CCC(CC2)[C@H]1n1cc(C(F)(F)F)c2cnc(-c3c[nH]c4ncc(F)cc34)nc21` [Compound B151], below 1 µM.

Consider `CNC(=O)N1CCC(Cn2cc(F)c3cnc(-c4c[nH]c5ncc(F)cc45)nc32)CC1` [Compound B62], for which the IC50 is above 100 µM. For `CCOC(=O)[C@H]1C2CCC(CC2)[C@@H]1n1cc(F)c2cnc(-c3c[nH]c4ncc(Cl)cc34)nc21` [Compound B134] the value was above 100 µM; for `O=C(O)[C@@H]1CCC[C@H](n2ccc3cnc(-c4c[nH]c5ncc(F)cc45)nc32)C1` [Compound B48], 1 to 10 µM. As for `CCOCCOCCCCCNC(=O)N1CCC[C@H](n2ccc3cnc(-c4c[nH]c5ncc(F)cc45)nc32)C1` [Compound B37], the IC50 was above 100 µM.

As to `CCC(C)(C(=O)NCC(F)(F)F)n1ccc2cnc(-c3c[nH]c4ncccc34)nc21` (centres unmarked) [Compound B97], the IC50 is above 100 µM. The result for `C[C@H](NC(=O)Cn1ccc2cnc(-c3c[nH]c4ncc(F)cc34)nc21)C(=O)O` [Compound B11] reads 10 to 100 µM; that for `CCOC(=O)[C@@H]1C2CCC(CC2)[C@H]1n1cc(C(C)C)c2cnc(-c3c[nH]c4ncc(F)cc34)nc21` [Compound B180], 10 to 100 µM; that for `CCCCCOCCOCC(=O)N[C@@H]1CCC[C@H](n2ccc3cnc(-c4c[nH]c5ncc(F)cc45)nc32)C1` [Compound B39], 10 to 100 µM. The result for `COC(=O)CCn1cc(-c2c[nH]c3ncc(F)cc23)c2cncnc21` [Compound C3] reads above 100 µM. For the compound `CCOC(=O)[C@H]1C2CCC(CC2)[C@@H]1n1ccc2cnc(-c3c[nH]c4ncc(Cl)cc34)nc21` [Compound B128], the IC50 was 10 to 100 µM. The result for `O=C(O)C1=C(n2cc(F)c3cnc(-c4c[nH]c5ncc(Cl)cc45)nc32)C2CCC1CC2` [Compound B213] reads below 1 µM; that for `COC(=O)CNC(=O)CCn1ccc2c(-c3c[nH]c4ncc(F)cc34)ncnc21` [Compound A16], above 100 µM; that for `O=C(O)[C@@H]1C2CCC(CC2)[C@H]1n1cc(C#CCC2CC2)c2cnc(-c3c[nH]c4ncc(F)cc34)nc21` [Compound B152], 10 to 100 µM. For `CC(C(=O)O)n1cc(-c2c[nH]c3ncc(F)cc23)c2cncnc21` (centres unmarked) [Compound C10], the IC50 is above 100 µM. For `CN(C)C(=O)Cn1ccc2cnc(-c3c[nH]c4ncc(F)cc34)nc21` [Compound B1] the value was 10 to 100 µM; for `C=Cc1cnc2[nH]cc(-c3ncc4c(F)cn([C@@H]5C6CCC(CC6)[C@H]5C(=O)O)c4n3)c2c1` [Compound B210], 1 to 10 µM; for `CCOCCCCCOCCNC(=O)N1CCC[C@H](n2ccc3cnc(-c4c[nH]c5ncc(F)cc45)nc32)C1` [Compound B35], 10 to 100 µM.

Take `CCOC(=O)C(C)Cn1cc(-c2c[nH]c3ncc(F)cc23)c2cncnc21` (centres unmarked) [Compound C17]: the IC50 was above 100 µM. For `O=C(O)[C@@H]1C2CCC(CC2)[C@H]1n1cc(-c2ccccc2)c2cnc(-c3c[nH]c4ncc(F)cc34)nc21` [Compound B150] the value was 1 to 10 µM; for `O=C(O)[C@H]1CCCN1C(=O)Cn1ccc2c(-c3c[nH]c4ncc(F)cc34)ncnc21` [Compound A9], 10 to 100 µM.

With `O=C(O)[C@@H]1C2CCC(CC2)[C@H]1n1ccc2ccc(-c3c[nH]c4ncc(Cl)cc34)cc21` [Compound B206], the IC50 was in the range of 1 to 10 µM. The result for `CCOC(=O)[C@@H]1C2CCC(CC2)[C@H]1n1cc(Cl)c2cnc(-c3c[nH]c4ncc(C#N)cc34)nc21` [Compound B219] reads above 100 µM. The result for `CCOCCOCCOCC(=O)N1CCC[C@H](n2ccc3cnc(-c4c[nH]c5ncc(F)cc45)nc32)C1` [Compound B32] reads 10 to 100 µM. The result for `CNC(=O)NC1CCCC(n2ccc3cnc(-c4c[nH]c5ncc(F)cc45)nc32)C1` (centres unmarked) [Compound B57] reads 10 to 100 µM; that for `N#Cc1cnc2[nH]cc(-c3ncc4c(F)cn([C@@H]5C6CCC(CC6)[C@H]5C(=O)O)c4n3)c2c1` [Compound B214], 1 to 10 µM. Turning to `O=C(O)Cn1ccc2c(-c3c[nH]c4ncc(F)cc34)ncnc21` [Compound A3], the IC50 was 1 to 10 µM.
